≈ marks a conversion by molar mass, not a printed value. Where a name gives a salt, the structure may show the parent alone. Read-outs that look alike come from different tables or passages of the source.
Assays:
Mtb FtsZ = Mtb FtsZ (Mycobacterium tuberculosis, UniProt P9WN95); experiment: biochemical; type: biochemical
Mtb H37Ra (ATCC 25177) = experiment: In vitro screen versus Mtb H37Ra (Alamar blue microdilution broth assay, MIC99); type: cell-based, M. tuberculosis; conditions: Mycobacterium tuberculosis
Method: The initial screening set and selected other compounds were tested for their inhibitory activity against Mtb H37Ra (ATCC 25177) and MAC NJ211 strains. Screening was performed at 1.28 and 12.8 μg/mL in Middlebrook 7H9 broth supplemented with 0.2% glycerol and ADC enrichment using a colorimetric (Alamar blue) microdilution broth assay by reported methods.[15]

MAC NJ211 = experiment: In vitro screen versus MAC NJ211 (Alamar blue microdilution broth assay, MIC99); type: cell-based; conditions: read-out: MAC NJ211 MIC99
tubulin = experiment: Tubulin polymerization assay; type: biochemical, human; conditions: mean ± standard deviation, at least three times per assay; NA = not active up to 100 μM
Mtb H37Rv = experiment: In vitro qHTS assay against Mtb H37Rv (IC90); type: cell-based, M. tuberculosis; conditions: for IC90: read-out: Mtb H37Rv IC90
[1] = lowest drug concentration that completely inhibited growth, read-out: Mtb H37Ra MIC99
[2] = same MIC99 given in μM, read-out: Mtb H37Ra MIC99 (concentration in μM in parentheses)
[3] = lowest drug concentration that completely inhibited growth
[4] = mean ± standard deviation, at least three times per assay, NA = not active up to 100 μM, read-out: Mtb FtsZ Polymerization IC50
[5] = Mycobacterium tuberculosis, H37RV, concentration that inhibits bacterial growth by 90%

Chain of Mtb FtsZ (P9WN95 whole entry): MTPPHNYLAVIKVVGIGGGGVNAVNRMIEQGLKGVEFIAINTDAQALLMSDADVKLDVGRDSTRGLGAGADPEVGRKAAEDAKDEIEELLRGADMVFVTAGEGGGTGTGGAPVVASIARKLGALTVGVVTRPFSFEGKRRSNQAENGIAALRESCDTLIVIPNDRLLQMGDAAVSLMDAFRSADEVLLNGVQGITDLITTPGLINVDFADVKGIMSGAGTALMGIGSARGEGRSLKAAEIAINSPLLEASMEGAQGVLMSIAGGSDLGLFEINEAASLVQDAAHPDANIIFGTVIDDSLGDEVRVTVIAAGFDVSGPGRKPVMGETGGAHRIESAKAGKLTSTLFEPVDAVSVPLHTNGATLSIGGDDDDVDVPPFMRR

## CN(C)c1ccc(O)c2c1C[C@H]1C[C@H]3[C@H](N(C)C)C(O)=C(C(N)=O)C(=O)[C@@]3(O)C(O)=C1C2=O [Compound 6, Minocycline]
Mtb FtsZ
  IC50: 37.3 ± 4.6 µM
Mtb H37Ra (ATCC 25177); [1]
  MIC99: ≤ 0.5 µg/mL

## C[n+]1cc2c3c(ccc2c2ccc4cc5c(cc4c21)OCO5)OCO3 [Compound 10, Sanguinarine Cl‾ • H2O]
Mtb FtsZ
  IC50: 23 ± 4 µM
Mtb H37Ra (ATCC 25177); [1]
  MIC99: 64 µg/mL
Mtb H37Ra (ATCC 25177); [2]
  MIC99: 193 µM
MAC NJ211; [3]
  MIC99: > 64 µg/mL
tubulin
  IC50: 30 ± 7 µM

## CSc1ccc(/C=C2/C(C)=C(CC(=O)NCc3ccc(N(C)C)cc3)c3cc(F)ccc32)cc1 [Compound 35, (Z)-N-(4-(Dimethylamino)benzyl)-2-(5-fluoro-2-methyl-1-(4-(methylthio)benzylidene)-1H-inden-3-yl)acetamide]
other
  melting point: 174 to 177 °C
Mtb FtsZ; [4]
  IC50: 22.9 ± 4.8 µM
Mtb H37Ra (ATCC 25177); [1]
  MIC99: 64 µg/mL
Mtb H37Rv; Mycobacterium tuberculosis, H37RV, at 50 μM
  inhibition at 50 µM: 82%
Mtb H37Rv; [5]
  IC90: > 100 µM
Mtb H37Rv; concentration that inhibits bacterial growth by 90%
  Mtb H37Rv IC90: inactive

## O=C(O)c1cc(O)c2c(c1)C(=O)c1cccc(O)c1C2=O [Compound 2, Rhein]
Mtb FtsZ
  IC50: 44.6 ± 6.3 µM
Mtb H37Ra (ATCC 25177); [1]
  MIC99: 32 µg/mL
Mtb H37Ra (ATCC 25177); [2]
  MIC99: 113 µM
MAC NJ211; [3]
  MIC99: > 128 µg/mL

## COc1cc2c(cc1O)CC[n+]1cc3cc(OC)c(OC)cc3cc1-2 [Compound 9, Pseudojatrorrhizine]
Mtb FtsZ; [4]
  IC50: 105 ± 32 µM
Mtb H37Ra (ATCC 25177); [1]
  MIC99: > 64 µg/mL
MAC NJ211; [3]
  MIC99: 64 µg/mL

## CSc1ccc(/C=C2/C(C)=C(CC(=O)N(C)CCN(C)C(=O)C(N)C(C)C)c3cc(F)ccc32)cc1 (centres unmarked) [Compound 56, (Z)-2-Amino-N-(2-(2-(5-fluoro-2-methyl-1-(4-(methylthio)benzylidene)-1H-inden-3-yl)-N-methylacetamido)ethyl)-N,3-dimethylbutanamide]
Mtb FtsZ; [4]
  IC50: 38 ± 6.3 µM
Mtb H37Ra (ATCC 25177); [1]
  MIC99: 8 µg/mL
Mtb H37Rv; [5]
  IC90: 4.34 ± 0.06 µM

## CSc1ccc(/C=C2/C(C)=C(CCNCCN3CCCCC3)c3cc(F)ccc32)cc1 [Compound 60, (Z)-2-(5-Fluoro-2-methyl-1-(4-(methylthio)benzylidene)-1H-inden-3-yl)-N-(2-(piperidin-1-yl)ethyl)ethanamine]
Mtb H37Ra (ATCC 25177); [1]
  MIC99: 2 µg/mL
MAC NJ211
  MIC99: 8 µg/mL (≈ 18.3 µM)
Mtb H37Rv; 48 vs 23, 57 vs 56, 60 vs 24
  fold more active against Mtb H37Rv than corresponding analog: 1.6 fold
Mtb H37Rv; Mycobacterium tuberculosis, H37RV
  IC90: 0.88 ± 0.01 µM

## CSc1ccc(/C=C2/C(C)=C(CC(=O)NCCN3CCCC3)c3cc(F)ccc32)cc1 [Compound 26, (Z)-2-(5-Fluoro-2-methyl-1-(4-(methylthio)benzylidene)-1H-inden-3-yl)-N-(2-(pyrrolidin-1-yl)ethyl)acetamide]
other
  melting point: 106 to 108 °C
Mtb FtsZ; [4]
  IC50: 33.5 ± 5.9 µM
Mtb H37Ra (ATCC 25177); [1]
  MIC99: 8 µg/mL
Mtb H37Rv; [5]
  IC90: 3.04 ± 0.04 µM

## Nc1nonc1C(=O)N/N=C/c1cc(Cl)cc(Cl)c1O [Compound 12, ChemBridge 5481893]
Mtb FtsZ; [4]
  IC50: 33.4 ± 3 µM
Mtb H37Ra (ATCC 25177); [1]
  MIC99: 64 µg/mL
Mtb H37Ra (ATCC 25177); [2]
  MIC99: 202 µM
MAC NJ211; [3]
  MIC99: > 64 µg/mL

## CSc1ccc(/C=C2/C(C)=C(CC(=O)N(C)CCN(C)C)c3cc(F)ccc32)cc1 [Compound 19, (Z)-N-(2-(Dimethylamino)ethyl)-2-(5-fluoro-2-methyl-1-(4-(methylthio)benzylidene)-1H-inden-3-yl)-N-methylacetamide]
Mtb FtsZ; [4]
  IC50: 42.3 ± 6 µM
Mtb H37Ra (ATCC 25177); [1]
  MIC99: 16 µg/mL
Mtb H37Rv; [5]
  IC90: 6.67 ± 0.14 µM

## CSc1ccc(/C=C2\C(C)=C(CC(=O)NCCN(C)C)c3cc(F)ccc32)cc1 [Compound 61, (E)-N-(2-(Dimethylamino)ethyl)-2-(5-fluoro-2-methyl-1-(4-(methylthio)benzylidene)-1H-inden-3-yl)acetamide]
Mtb FtsZ; [4]
  IC50: 44.6 ± 6.3 µM
Mtb H37Ra (ATCC 25177); [1]
  MIC99: 16 µg/mL
MAC NJ211; [3]
  MIC99: 16 µg/mL (≈ 39 µM)
Mtb H37Rv; [5]
  IC90: 7.7 ± 0.33 µM

## CSc1ccc(/C=C2/C(C)=C(CCNCc3ccco3)c3cc(F)ccc32)cc1 [Compound 59, (Z)-2-(5-Fluoro-2-methyl-1-(4-(methylthio)benzylidene)-1H-inden-3-yl)-N-(furan-2-ylmethyl)ethanamine]
Mtb H37Ra (ATCC 25177); [1]
  MIC99: 4 µg/mL
MAC NJ211; [3]
  MIC99: 8 µg/mL (≈ 19.7 µM)
Mtb H37Rv; [5]
  IC90: 1.69 ± 0.06 µM

## CCN(CC)CCNc1nc(/C=C/c2ccc(Cl)cc2)nc2cc3ccccc3cc12 [Compound 16, Zantrin Z3]
Mtb H37Ra (ATCC 25177); [1]
  MIC99: 1 µg/mL
MAC NJ211; [3]
  MIC99: 2 µg/mL (≈ 4.64 µM)

## CC(C)c1c(O)ccc2c1CC[C@H]1C(C)(C)CCC[C@]21C [Compound 13, Totarol]
Mtb FtsZ; [4]
  IC50: 47.5 ± 4.9 µM
Mtb H37Ra (ATCC 25177); [1]
  MIC99: 25 µg/mL
Mtb H37Ra (ATCC 25177); [2]
  MIC99: 87.3 µM
MAC NJ211; [3]
  MIC99: 25 µg/mL (≈ 87.3 µM)

## CC[C@@H](CO)NCCN[C@@H](CC)CO [Ethambutol]
Mtb H37Ra (ATCC 25177); [1]
  MIC99: 2 to 4 µg/mL
MAC NJ211; [3]
  MIC99: 4 to 8 µg/mL (≈ 19.6 to 39.2 µM)

## CN(C)[C@@H]1C(O)=C(C(N)=O)C(=O)[C@@]2(O)C(O)=C3C(=O)c4c(O)cccc4[C@@](C)(O)[C@H]3C[C@@H]12 [Compound 5, Tetracycline]
Mtb FtsZ
  IC50: 87.1 ± 10.7 µM
Mtb H37Ra (ATCC 25177); [1]
  MIC99: 1 µg/mL

## CSc1ccc(/C=C2/C(C)=C(CC(=O)NCCN3CCCCC3)c3cc(F)ccc32)cc1 [Compound 24, (Z)-2-(5-Fluoro-2-methyl-1-(4-(methylthio)benzylidene)-1H-inden-3-yl)-N-(2-(piperidin-1-yl)ethyl)acetamide]
other
  melting point: 130 to 133 °C
Mtb FtsZ; [4]
  IC50: 26.5 ± 4.8 µM
Mtb H37Rv; [5]
  IC90: 1.41 ± 0.03 µM
tubulin
  IC50: > 100 µM

## Oc1ccc(Cl)cc1Cc1cc(Cl)cc(Cc2cc(Cl)ccc2O)c1O [Compound 17, Zantrin Z1]
Mtb H37Ra (ATCC 25177); [1]
  MIC99: 8 µg/mL
MAC NJ211; [3]
  MIC99: 16 µg/mL (≈ 39.1 µM)

## O=c1c(O)c(-c2cc(O)c(O)c(O)c2)oc2cc(O)cc(O)c12 [Compound 4, Myrcetin]
Mtb FtsZ
  IC50: 42.4 ± 6.3 µM
Mtb H37Ra (ATCC 25177); [1]
  MIC99: > 128 µg/mL
MAC NJ211
  MIC99: > 128 µg/mL

## C=CCOc1c(Br)cc(S(=O)(=O)c2cc(Br)c(O)c(Br)c2)cc1Br [Compound 7, Zantrin Z4]
Mtb H37Ra (ATCC 25177); [1]
  MIC99: 64 µg/mL
MAC NJ211
  MIC99: > 64 µg/mL
tubulin
  IC50: 77 ± 3 µM

## O=c1c(O)c(-c2ccc(O)c(O)c2)oc2cc(O)cc(O)c12 [Compound 3, Quercetin dihydrate]
Mtb FtsZ
  IC50: 21.7 ± 4.8 µM
Mtb H37Ra (ATCC 25177); [1]
  MIC99: > 128 µg/mL
MAC NJ211
  MIC99: > 128 µg/mL

## COc1cc2c(c(OC)c1OC)-c1ccc(OC)c(=O)cc1[C@@H](NC(C)=O)CC2 [Compound 1, Colchicine]
Mtb H37Ra (ATCC 25177); read-out: Mtb H37Ra MIC99
  MIC99: > 64 µg/mL
MAC NJ211; [3]
  MIC99: > 64 µg/mL

## CSc1ccc(/C=C2/C(C)=C(CC(=O)N3CCN(c4ccncc4)CC3)c3cc(F)ccc32)cc1 [Compound 32, (Z)-2-(5-Fluoro-2-methyl-1-(4-(methylthio)benzylidene)-1H-inden-3-yl)-1-(4-(pyridin-4-yl)piperazin-1-yl)ethanone]
other
  melting point: 171 to 174 °C
Mtb H37Rv; [5]
  IC90: 3.07 ± 0.04 µM

## CCCCN(CCCC)CCCNC(=O)C(C)C1=C(C)/C(=C/c2ccc(SC)cc2)c2ccc(F)cc21 (centres unmarked) [Compound 47, (Z)-N-(3-(Dibutylamino)propyl)-2-(5-fluoro-2-methyl-1-(4-(methylthio)benzylidene)-1H-inden-3-yl)propanamide]
other
  melting point: 121 to 124 °C
Mtb H37Rv; [5]
  IC90: 1.22 ± 0.04 µM

## CC/C(=C(\c1ccccc1)c1ccc(OCCN(C)C)cc1)c1ccccc1 [Compound 11, Tamoxifen citrate]
MAC NJ211; [3]
  MIC99: 32 µg/mL

## CC1=C(CC(=O)N(C)CCN(C)C)c2cc(F)ccc2/C1=C\c1nc2ccccc2s1 [Compound 39, (Z)-2-(1-(Benzo[d]thiazol-2-ylmethylene)-5-fluoro-2-methyl-1H-inden-3-yl)-N-(2-(dimethylamino)ethyl)-N-methylacetamide]
other
  melting point: 103 to 106 °C
Mtb H37Rv; [5]
  IC90: 9.97 ± 0.33 µM

## CSc1ccc(/C=C2/C(C)=C(C(C)C(=O)NCCCN3CCCCC3C)c3cc(F)ccc32)cc1 (centres unmarked) [Compound 50, (Z)-2-(5-Fluoro-2-methyl-1-(4-(methylthio)benzylidene)-1H-inden-3-yl)-N-(3-(2-methylpiperidin-1-yl)propyl)propanamide]
other
  melting point: 87 to 89 °C
Mtb H37Rv; [5]
  IC90: 1.64 ± 0.07 µM

## CNCCN(C)C(=O)CC1=C(C)/C(=C/c2ccc(SC)cc2)c2ccc(F)cc21 [Compound 23, (Z)-2-(5-Fluoro-2-methyl-1-(4-(methylthio)benzylidene)-1H-inden-3-yl)-N-methyl-N-(2-(methylamino)ethyl)acetamide]
Mtb FtsZ; [4]
  IC50: 34.9 ± 7 µM
Mtb H37Ra (ATCC 25177); [1]
  MIC99: 8 µg/mL
Mtb H37Rv; [5]
  IC90: 8.28 ± 0.33 µM

## CSc1ccc(/C=C2/C(C)=C(C(C)C(=O)N3CCN(CCCN(C)C)CC3)c3cc(F)ccc32)cc1 (centres unmarked) [Compound 54, (Z)-1-(4-(3-(Dimethylamino)propyl)piperazin-1-yl)-2-(5-fluoro-2-methyl-1-(4-(methylthio)benzylidene)-1H-inden-3-yl)propan-1-one]
other
  melting point: 78 to 80 °C
Mtb H37Rv; [5]
  IC90: 3.72 ± 0.06 µM

## COc1cc(/C=C(\C#N)C(N)=O)cc(CSc2nc3ccccc3s2)c1O [Compound 15, AG-825]
Mtb FtsZ; [4]
  IC50: 31.7 ± 1.7 µM

## CSc1ccc(/C=C2/C(C)=C(CC(=O)NCCCN3CCCCC3C)c3cc(F)ccc32)cc1 (centres unmarked) [Compound 25, (Z)-2-(5-Fluoro-2-methyl-1-(4-(methylthio)benzylidene)-1H-inden-3-yl)-N-(3-(2-methylpiperidin-1-yl)propyl)acetamide]
other
  melting point: 84 to 86 °C
Mtb H37Rv; [5]
  IC90: 5.41 ± 0.11 µM

## CSc1ccc(/C=C2/C(C)=C(CCNCc3ccccc3)c3cc(F)ccc32)cc1 [Compound 58]
Mtb H37Ra (ATCC 25177); [1]
  MIC99: 2 µg/mL
MAC NJ211; [3]
  MIC99: 4 µg/mL (≈ 9.63 µM)
Mtb H37Rv; [5]
  IC90: 2.07 ± 0.01 µM
